Reference: patent US20230116972A1, “CD38 MODULATORS AND METHODS OF USE THEREOF” (Cytokinetics, Inc., priority 2021, published 2023)

Assays:
[1] = biological target: T1, endogenous CD38 in HL60 cells (Homo sapiens, UniProt P28907); test: cellular CD38 assay in HL60 cells (cellular NAD levels); type: cell-based; details: all-trans retinoic acid, 24 hours, read-out: hCD38 HL60 ATRA NAD Cell Diaphorase IC50
T1 construct: endogenous in cells; host or cells: HL60 (leukemic cells, treated with all-trans retinoic acid)
T1 sequence (P28907 1-300): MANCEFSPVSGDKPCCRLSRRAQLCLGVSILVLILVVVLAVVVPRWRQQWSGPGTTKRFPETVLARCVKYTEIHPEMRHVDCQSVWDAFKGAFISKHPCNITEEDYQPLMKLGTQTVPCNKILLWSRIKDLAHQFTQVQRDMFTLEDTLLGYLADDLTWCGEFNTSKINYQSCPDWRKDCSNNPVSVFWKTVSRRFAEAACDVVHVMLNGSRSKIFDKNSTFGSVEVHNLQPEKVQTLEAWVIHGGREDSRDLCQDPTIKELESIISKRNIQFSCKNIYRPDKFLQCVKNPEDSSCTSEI
Procedure, shortened: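 Endogenous CD38 inhibition is inferred from NAD levels in HL60 cells after 24 h compound exposure at 20000 cells per well. A lytic cycling readout (0.2 U/mL diaphorase, 0.8 U/mL alcohol dehydrogenase, resazurin, FMN, ethanol, 0.2% Triton X-100, Tris/EDTA pH 8.4) ran 60 min at ambient temperature. Resorufin fluorescence was read at 540/590 nm.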

[2] = biological target: T2, human CD38 (Homo sapiens, UniProt P28907); test: human recombinant CD38 enzyme assay (hydrolysis of NAD+); type: biochemical; details: human recombinant CD38, 0.4 nM enzyme, 62.5 μM NAD+; read-out: hCD38 BioChem IC50
T2 sequence (P28907 1-300): T1 sequence (P28907 1-300)
Procedure, shortened: (§1)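 Residual substrate after a one-hour room-temperature incubation of recombinant CD38 with NAD+ and test compound is measured by an ADH/diaphorase coupled resorufin signal (540 nm excitation, 590 nm emission); reduced NAD+ consumption reflects inhibition.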

[3] = biological target: T3, mouse CD38 (Mus musculus, UniProt P56528); test: mouse recombinant CD38 enzyme assay (hydrolysis of NAD+); type: biochemical; details: read-out: mCD38 BioChem IC50
T3 sequence (P56528 1-304): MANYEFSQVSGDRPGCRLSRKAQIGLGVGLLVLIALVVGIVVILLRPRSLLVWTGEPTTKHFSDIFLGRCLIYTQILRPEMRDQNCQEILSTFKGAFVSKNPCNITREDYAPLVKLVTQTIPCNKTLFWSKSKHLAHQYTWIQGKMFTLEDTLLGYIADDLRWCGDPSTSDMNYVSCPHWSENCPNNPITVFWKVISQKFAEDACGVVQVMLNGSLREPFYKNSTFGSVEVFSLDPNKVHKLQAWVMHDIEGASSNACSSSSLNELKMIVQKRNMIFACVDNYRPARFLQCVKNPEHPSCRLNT
Procedure, shortened: as §1

SMILES | IC50 [1] [nM] | IC50 [2] [nM] | IC50 [3] [nM]
Cn1cncc1-c1nc(C(=O)N[C@H]2CC[C@H](NCC(F)(F)F)CC2)cc(C2CCOCC2)n1 [Compound 300, 2-(1-methyl-1H-imidazol-5-yl)-6-(tetrahydro-2H-pyran-4-yl)-N-((1r,4r)-4-((2,2,2-trifluoroethyl)amino)cyclohexyl) pyrimidine-4-carboxamide] | 2120 | 15.7 | 1.6
Cn1cncc1-c1ccnc(C(=O)Nc2ccc(C(F)F)nc2)n1 [Compound 147, N-(6-(difluoromethyl)pyridin-3-yl)-4-(1-methyl-1H-imidazol-5-yl)pyrimidine-2-carboxamide] | 151 | 2 | 6
Cn1cncc1-c1nc(C(=O)N[C@H]2CC[C@H](OC(F)F)CC2)cc(C2CCOCC2)n1 [Compound 281, N-((1r,4r)-4-(difluoromethoxy)cyclohexyl)-2-(1-methyl-1H-imidazol-5-yl)-6-(tetrahydro-2H-pyran-4-yl)pyrimidine-4-carboxamide] | 1330 | 4.1 | 1.3
O=C(N[C@H]1CC[C@](O)(c2ccccc2)CC1)c1nccc(-n2ccnc2)n1 [Compound 260, N-((1s,4s)-4-hydroxy-4-phenylcyclohexyl)-4-(1H-imidazol-1-yl)pyrimidine-2-carboxamide] | 10600 | 271 | 161
O=C(Nc1cccnc1)c1cncc(-n2ccnc2)n1 [Compound 56, 6-(1H-imidazol-1-yl)-N-(pyridin-3-yl)pyrazine-2-carboxamide] | 263 | 5 | 6
COCCOc1cc(-c2cncn2C)nc(C(=O)Nc2ccc(C(F)(F)F)nc2)n1 [Compound 233, 4-(2-methoxyethoxy)-6-(1-methyl-1H-imidazol-5-yl)-N-(6-(trifluoromethyl)pyridin-3-yl)pyrimidine-2-carboxamide] | 1040 | 6 | 1.1
O=C(Nc1ccc(C(F)(F)F)nc1)c1cc(-n2ccnc2)ccn1 [Compound 6, 4-(1H-imidazol-1-yl)-N-(6-(trifluoromethyl)pyridin-3-yl)picolinamide] | 8690 | 352 | 1580
Cn1cncc1-c1cncc(C(=O)NC2CC3(C2)CC(F)(F)C3)n1 [Compound 105, N-(6,6-difluorospiro[3.3]heptan-2-yl)-6-(1-methyl-1H-imidazol-5-yl)pyrazine-2-carboxamide] | 1670 | 80 | 24
Cn1cncc1-c1nc(C(=O)N[C@H]2CC[C@H](OC(F)F)CC2)cc(C2(C)COC2)n1 [Compound 311, N-((1r,4r)-4-(difluoromethoxy)cyclohexyl)-2-(1-methyl-1H-imidazol-5-yl)-6-(3-methyloxetan-3-yl)pyrimidine-4-carboxamide] | 2150 | 13.5 | 3.8
Cn1cncc1-c1ccnc(C(=O)N[C@H]2C[C@H](c3ccc(C(F)(F)F)nc3)C2)n1 [Compound 273, 4-(1-methyl-1H-imidazol-5-yl)-N-((1r,3r)-3-(6-(trifluoromethyl)pyridin-3-yl)cyclobutyl)pyrimidine-2-carboxamide] | 2470 | 71.9 | 53.7
COc1cc(-c2cncn2C)nc(C(=O)N[C@H]2CC[C@H](OC)CC2)n1 [Compound 192, 4-Methoxy-N-((1r,4r)-4-methoxycyclohexyl)-6-(1-methyl-1H-imidazol-5-yl)pyrimidine-2-carboxamide] | 3760 | 46.1 | 5.5
Cc1cc(C(=O)N[C@H]2CC[C@H](C(F)F)CC2)nc(-c2cncn2C)c1 [Compound 99, N-(4-(difluoromethyl)cyclohexyl)-4-methyl-6-(1-methyl-1H-imidazol-5-yl)picolinamide] | 5130 | 80 | 7
